Results as given in PMC4443670, “The C-terminal region of the motor protein MCAK controls its structure and activity through a conformational switch” (eLife, 2015).
Entries after “also recorded” stand apart in the source; their conditions may differ. Ends that are not written are not given here.

Columns and labels:
[1] = test system: MCAK motor domain (His-M, His-NM); test: Resin-based (glutathione agarose) GST pull-down binding assay; set-up: species or system human; conditions: GST-CT constructs on glutathione agarose beads; purified His-M / His-NM; Coomassie-stained gel
Source text: Kinesin-1 is regulated through an auto-inhibitory mechanism whereby one C-terminal tail binds at the interface of the two motors, such that it creates a second point of attachment in addition to the coiled coil region. This limits the head movement of one kinesin with respect to the other ([Stock et al., 1999]; [Hackney and Stock, 2000]; [Kaan et al., 2011]). We sought to test whether the C-terminal tail domain of MCAK, which has been proposed to regulate MCAK activity ([Moore and Wordeman, 2004]), was sufficient to interact with the motor domain. To do this, we expressed the N-terminal and motor region (residues 1–583, termed NM) or the motor region of MCAK along with the neck linker region (residues 181–583, termed M) as His-tagged proteins, and the C-terminal MCAK tail (residues 700–725, termed CT domain) as a GST fusion protein ([Moore and Wordeman, 2004]; [Hertzer et al., 2006]) (Figure 1A). […] We cannot however exclude a very tight interaction between two CT domains. […] Together, these experiments reveal that the MCAK CT domain interacts with its catalytic domain in solution.
Figure 4. Sequence requirement for the formation of a motor-CT tail complex. (A) Sequence alignment of the conserved CT domain of MCAK for various species alongside the Drosophila kinesin-13 Klp10A and human Kif2a. The conserved residues are highlighted in red. The three amino acids that are critical for binding to the motor domain are marked with a green star. (B) Sequence alignment of the C terminus of human Kif2a, Kif2b, and MCAK/Kif2c. Amino acid numbering is relative to the Kif2a sequence. The MCAK CT domain binding to the motor domain is boxed in green. The sequences were aligned using the program T-coffee (EBI) and formatted with ESPRIPT ([Gouet et al., 1999]). (C) Coomassie-stained gel showing a resin-based binding assay using glutathione agarose beads for purified His-M, binding to the GST-CT and GST-CT point mutants. (D) Size-exclusion chromatography elution profile of the motor domain alone (red dashes), motor incubated with the CT, CTS715E, CTE711A, E712A domains (cyan, green dashes, and purple, respectively). Bottom, coomassie-stained gel showing the size-exclusion chromatography elution of the motor incubated with the CTS715E and CTE711A, E712A domains (green and purple, respectively). DOI: http://dx.doi.org/10.7554/eLife.06421.008
Protein expression was induced by addition of 0.5 mM IPTG to BL21(DE3) Codon plus cells transformed with respective constructs at OD600 of 0.7–0.8 for 16 hr at 18°C. Cells were lysed by sonication in lysis buffer (50 mM Hepes, pH 7.4, 200 mM NaCl, 1 mM MgCl2, 1 mM PMSF, 1 mg/ml DNaseI, 2 mg/ml lysozyme, 10 mM Imidazole) and clarified at 20,000 rpm for 1 hr at 4°C. His-tagged and GST-tagged proteins were subsequently purified using Ni-NTA–agarose beads and glutathione-sepharose beads, respectively (GE Healthcare Life Sciences, UK)) according to the manufacturer's guidelines. MCAK constructs containing the motor domain were eluted with elution buffer (50 mM Hepes, pH 7.4, 200 mM NaCl, 1 mM MgCl2, 1 mM ATP, and 300 mM imidazole). Cleavage of the GST tag was performed using the GST-3C protease overnight at 4°C. Proteins were further purified using gel filtration chromatography pre-equilibrated in gel filtration buffer (For full-length MCAK: 100 mM HEPES, pH 7.3, 200 mM NaCl, 200 mM KCl, 1 mM DTT, 1 mM MgCl2, 1 mM Na-EGTA, 1 mM ATP; for the motor domain constructs: 50 mM HEPES, pH 7.2, 150 mM NaCl, 1 mM DTT, 1 mM MgCl2, 1 mM Na-EGTA, 1 mM ATP; for CT domain constructs: 50 mM HEPES, pH 7.2, 150 mM NaCl, 1 mM DTT, 1 mM MgCl2, 1 mM Na-EGTA). Analytical gel filtration chromatography was performed using either a Superdex 75 or a Superose 6 10/300 GL column (GE Healthcare, UK). To purify the CT domain alone, we cleaved GST and CT after gel filtration and a concentration step, and performed a glutathione affinity-purification third step to remove the GST and collect the CT domain. […]

MCAK motor domain = molecular target: T1, MCAK motor domain (Homo sapiens, UniProt Q99661); test: Analytical size-exclusion chromatography (motor-CT complex formation); assay type: binding; conditions: Superdex 75 or Superose 6 10/300 GL; Coomassie-stained gel of fractions
T1 construct: His-MCAK (183–583, M) and His-MCAK (1–583, NM) were subcloned in pET3aTr vector; made in house; host or cells: E. coli BL21(DE3) Codon plus
T1 sequence (Q99661 183-583): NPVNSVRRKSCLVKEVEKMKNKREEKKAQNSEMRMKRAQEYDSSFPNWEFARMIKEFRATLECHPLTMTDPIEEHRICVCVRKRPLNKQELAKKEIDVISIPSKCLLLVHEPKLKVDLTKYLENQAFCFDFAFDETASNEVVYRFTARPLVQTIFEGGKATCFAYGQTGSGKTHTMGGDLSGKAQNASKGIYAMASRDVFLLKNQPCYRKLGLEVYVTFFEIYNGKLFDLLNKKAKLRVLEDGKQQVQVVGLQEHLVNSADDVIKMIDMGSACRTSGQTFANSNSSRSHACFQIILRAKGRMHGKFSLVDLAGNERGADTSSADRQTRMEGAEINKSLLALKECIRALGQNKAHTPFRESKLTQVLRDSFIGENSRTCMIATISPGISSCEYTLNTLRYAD
Source text: Full-length MCAK is a dimer in solution ([Maney et al., 2001]). Therefore, we sought to test whether the CT domain interacts with one or two motor domains. To define the stoichiometry of this interaction, we subjected the complex to analytical size-exclusion chromatography. The motor domain alone behaves as a monomer and eluted with an apparent size of ∼45 kDa. […] Using SDS-PAGE analysis, we confirmed that the shift to a larger complex was due to the interaction of the motor domain with the CT domain (Figure 1C, bottom). […] The predicted masses for complexes of one and two CT domains bound to two motor domains are ∼94.2 and 97.7 kDa, respectively. […] Since the CT domain is unlikely to dimerize alone (Figure 1B), we conclude that the MCAK CT domain induces the dimerization of the motor domains cooperatively.
Protein expression was induced by addition of 0.5 mM IPTG to BL21(DE3) Codon plus cells transformed with respective constructs at OD600 of 0.7–0.8 for 16 hr at 18°C. Cells were lysed by sonication in lysis buffer (50 mM Hepes, pH 7.4, 200 mM NaCl, 1 mM MgCl2, 1 mM PMSF, 1 mg/ml DNaseI, 2 mg/ml lysozyme, 10 mM Imidazole) and clarified at 20,000 rpm for 1 hr at 4°C. His-tagged and GST-tagged proteins were subsequently purified using Ni-NTA–agarose beads and glutathione-sepharose beads, respectively (GE Healthcare Life Sciences, UK)) according to the manufacturer's guidelines. MCAK constructs containing the motor domain were eluted with elution buffer (50 mM Hepes, pH 7.4, 200 mM NaCl, 1 mM MgCl2, 1 mM ATP, and 300 mM imidazole). Cleavage of the GST tag was performed using the GST-3C protease overnight at 4°C. […] Protein concentrations were determined with a combination of Bradford protein assays and densitometry of Coomassie-stained gels relative to a BSA standard. […]

[2] = test system: MCAK motor domain (Cys287); test: Covalent (disulphide) attachment of the CT domain to the motor domain; assay type: binding, human
Experimental: The GST-CTE712C and CTE712C domains were cross-linked to the motor domain by incubating them with the motor domain in a buffer containing 100 mM HEPES, pH 7.4, 150 mM NaCl but lacking DTT for 1 hr at 4°C. As a negative control the motor domain and the CTE712C domain were incubated in the identical buffer, supplemented with 5 mM DTT.

[3] = test system: taxol-stabilized microtubules; test: Microtubule cosedimentation assay, untreated microtubules; assay type: binding; conditions: 100 nM full-length MCAKS715E, 2 μM taxol-stabilized microtubules, increasing free CT or CTS715E; repeated three times
Experimental: Full-length MCAK complex was diluted in S buffer (50 mM NaCl, 20 mM Hepes pH 7.0) to 50 nM, in absence of nucleotide to prevent MCAK-dependent microtubule depolymerisation. To assemble an MCAK motor-CT domain complex, 50 nM of the motor domain and 100 nM of the CT domain were used. Microtubule binding assays were performed as described ([Cheeseman et al., 2006]) using equal volumes of taxol-stabilized microtubules in BRB80 and MCAK in S buffer. MCAK was quantified using anti-MCAK antibody against the C terminus of MCAK (709[…]720), generated by GL Biochem (Shangai) Ltd (China) or anti-His antibody to probe for the motor domain alone (GE Healthcare Lifesciences, UK). The data from at least three independent experiments were fitted to a modified Hill equation to determine the apparent Kd.

Row | Substance | binding to the motor domain of MCAK [1] | also measured
1 | CTE711A, E712A: CT domain point mutant E711A, E712A (VIKALRLAMQLAAQASRQISSKKRPQ; not fully specified) | no longer bound to the motor domain of MCAK | –
2 | GST-CT: C-terminal MCAK tail (residues 700–725) as a GST fusion protein (VIKALRLAMQLEEQASRQISSKKRPQ; also: GST fusion partner not in chain) | bound to both the NM and M domains of MCAK as a stable complex; also recorded: bound to the motor domain | –
3 | GST-CTE712C: cleavable GST fusion of CTE712C domain (VIKALRLAMQLECQASRQISSKKRPQ; also: GST fusion partner not in chain) | – | binding to / co-migration with motor domain by gel filtration (MCAK motor domain): eluted as a single peak, earlier than the peak for the motor alone; efficiency of disulphide bridge formation with motor domain ([2]; absence of DTT, Coomassie-stained gel): ~50%; formation of covalent complex with motor ([2]; oxidizing conditions (without DTT), 100 mM HEPES pH 7.4, 150 mM NaCl, 1 hr at 4°C): formed a covalent complex
4 | CTR716A: CT domain point mutant R716A (VIKALRLAMQLEEQASAQISSKKRPQ; not fully specified) | bound robustly | –
5 | CTS715E: CT domain point mutant S715E (VIKALRLAMQLEEQAERQISSKKRPQ; left off: GST, end not stated, cleaved) | – | binding to / co-migration with motor domain by gel filtration (MCAK motor domain): did not co-migrate; effect of free CT domain on MCAKS715E binding to microtubules [3]: did not interfere with MCAKS715E binding to microtubules
6 | CTI718A: CT domain point mutant I718A (VIKALRLAMQLEEQASRQASSKKRPQ; not fully specified) | bound robustly | –

More lines, main results first:

Row | binding to the motor domain of MCAK [1] | Substance | also measured
7 | did not interact with the motor domain | GST-CTS715E: GST fusion of CT domain S715E (VIKALRLAMQLEEQAERQISSKKRPQ; also: GST fusion partner not in chain) | –
8 | bound to the motor domain | GST-CTS715A: GST fusion of CT domain S715A (VIKALRLAMQLEEQAARQISSKKRPQ; also: GST fusion partner not in chain) | –
